These results are taken from patent publication US9650395B2, “Antibacterial compounds and methods for use” (PTC Therapeutics, Inc., priority 2011, dated 2017).

≈ marks a conversion by molar mass, not a printed value. Like-named read-outs stand apart in the source and are kept apart here.

Assay [1] deals with super sensitive Gram-negative Escherichia coli (E. coli) BAS849. Kind of assay: Antibacterial activity, microbroth dilution MIC, E. coli BAS849. It counts as cell-based. The settings on record: Escherichia coli; E. coli BAS849, microbroth dilution; read-out: MIC, BAS849. Background: In broth dilution the organism is exposed to a series of concentrations in liquid medium.
The test system of assay [2] is control Gram-negative E. coli 25922 strain. In words: Antibacterial activity, microbroth dilution MIC, E. coli 25922. Format: cell-based, Escherichia coli. The settings on record: Escherichia coli; E. coli 25922, microbroth dilution; read-out: MIC, 25922.
In assay [3] the test system is Gram-positive Staphylococcus aureus (S. aureus) 29213. Kind of assay: Antibacterial activity, microbroth dilution MIC, S. aureus 29213. It counts as cell-based. The conditions noted are these: Staphylococcus aureus; S. aureus 29213, microbroth dilution; read-out: MIC, 29213.
Assay [4] relates to quinolone resistant E. coli LZ3111. Kind of assay: Antibacterial activity, MIC, quinolone resistant E. coli LZ3111. It counts as cell-based, Escherichia coli. The settings on record: Escherichia coli, read-out: MIC, LZ3111. The text has this:
(§1) The antibacterial activity from a microbroth dilution method may be presented as the minimum inhibitory concentration (MIC in […]). The MIC value is the lowest concentration of a drug which prevents macroscopically visible bacterial growth under test conditions.
Mutations in these regions are known to confer a high level resistance to the quinolone class of antibiotics.

For assay [5], the system named is Acinetobacter baumannii (A. baumannii) BAA747. In words: Antibacterial activity, MIC, A. baumannii BAA747. Format: cell-based. The conditions noted are these: Acinetobacter baumannii; A. baumannii BAA747; read-out: MIC BAA747.
Assay [6] has as its system Klebsiella pneumoniae (K. pneumoniae) 35657. In words: Antibacterial activity, MIC, K. pneumoniae 35657. It counts as cell-based. The settings on record: Klebsiella pneumoniae.
Assay [7] deals with resistant A. baumannii MXX2240 (MDR clinical isolate). In words: Antibacterial activity, MIC, resistant A. baumannii MXX2240. Format: cell-based, Acinetobacter baumannii. The settings on record: Acinetobacter baumannii, read-out: MIC MMX2240.
For assay [8], the system named is resistant K. pneumoniae MXX1232 (MDR clinical isolate). In words: Antibacterial activity, MIC, resistant K. pneumoniae MXX1232. It counts as cell-based, Klebsiella pneumoniae. The settings on record: Klebsiella pneumoniae, read-out: MIC MMX1232.
Assay [9] concerns Pseudomonas aeruginosa (P. aeruginosa) 27853. Kind of assay: Antibacterial activity, MIC, P. aeruginosa 27853. The settings on record: Pseudomonas aeruginosa, P. aeruginosa 27853; read-out: MIC 27853. It counts as cell-based.
Source text: as §1
Antibacterial activity of test compounds against the Gram-negative bacterium Pseudomonas aeruginosa (P. aeruginosa) 27853 is shown in Table 5.

Setting [10] is: resistant A. baumannii MMX2240, MDR clinical isolate.
The mark [11] stands for this setting: resistant K. pneumoniae MMX1232, MDR clinical isolate.

Consider `CCc1c(-c2ccc(N3CC4(CCNCC4)C3)cc2)[nH]c(=O)c(C(=O)O)c1O` [Cpd 320, 6-(4-(2,7-diazaspiro[3.5]nonan-2-yl)phenyl)-5-ethyl-4-hydroxy-2-oxo-1,2-dihydropyridine-3-carboxylic acid], for which the MIC was in the range of 3.5 to 12.5 µg/mL (≈ 9.13 to 32.6 µM) in assay [1]; 12.5 to 150 µg/mL (≈ 32.6 to 391 µM) in [2]; 12.5 to 150 µg/mL (≈ 32.6 to 391 µM) in assay [3]; 12.5 to 150 µg/mL (≈ 32.6 to 391 µM) in [4]; 12.5 to 150 µg/mL (≈ 32.6 to 391 µM) in [5]; 3.5 to 12.5 µg/mL (≈ 9.13 to 32.6 µM) in assay [6]. Further, the MIC in [7] (setting [10]), in assay [8] (setting [11]) and in assay [9] was 12.5 to 150 µg/mL (≈ 32.6 to 391 µM) each time.

`CCc1c(-c2ccc(C3CCN(CC)CC3)cc2)[nH]c(=O)c(C(=O)O)c1O` [Cpd 339, 5-ethyl-6-(4-(1-ethylpiperidin-4-yl)phenyl)-4-hydroxy-2-oxo-1,2-dihydropyridine-3-carboxylic acid]: the MIC was 3.5 to 12.5 µg/mL (≈ 9.45 to 33.7 µM) in assay [1]; 12.5 to 150 µg/mL (≈ 33.7 to 405 µM) in assay [2]; 12.5 to 150 µg/mL (≈ 33.7 to 405 µM) in assay [3]; 12.5 to 150 µg/mL (≈ 33.7 to 405 µM) in [4]; 12.5 to 150 µg/mL (≈ 33.7 to 405 µM) in assay [5]; 12.5 to 150 µg/mL (≈ 33.7 to 405 µM) in [6]. In addition, the MIC in assay [7] (setting [10]), in assay [8] (setting [11]) and in [9] was 12.5 to 150 µg/mL (≈ 33.7 to 405 µM) in each case.

As to `CCc1c(-c2ccc(N3CCC(c4ccccn4)C3)cc2)[nH]c(=O)c(C(=O)O)c1O` (stereo not drawn) [Cpd 286, 5-ethyl-4-hydroxy-2-oxo-6-{4-[3-(pyridin-2-yl)pyrrolidin-1-yl]phenyl}-1,2-dihydropyridine-3-carboxylic acid], the MIC in assay [1] is below 1 µg/mL; in [2], 1 to 3.5 µg/mL (≈ 2.47 to 8.63 µM); in assay [3], 1 to 3.5 µg/mL (≈ 2.47 to 8.63 µM); in [4], 12.5 to 150 µg/mL (≈ 30.8 to 370 µM); in assay [5], 3.5 to 12.5 µg/mL (≈ 8.63 to 30.8 µM); in [6] it was 12.5 to 150 µg/mL (≈ 30.8 to 370 µM). Also, the MIC in assay [7] (setting [10]), in assay [8] (setting [11]) and in assay [9] was 12.5 to 150 µg/mL (≈ 30.8 to 370 µM) each time.

For `CCc1c(-c2ccc(N3CC4(CCN(C)CC4)C3)cc2)[nH]c(=O)c(C(=O)O)c1O` [Cpd 319, 5-ethyl-4-hydroxy-6-(4-(7-methyl-2,7-diazaspiro[3.5]nonan-2-yl)phenyl)-2-oxo-1,2-dihydropyridine-3-carboxylic acid], the MIC in assay [1] was below 1 µg/mL; in [2] it was 3.5 to 12.5 µg/mL (≈ 8.81 to 31.4 µM); in assay [3] it was 12.5 to 150 µg/mL (≈ 31.4 to 377 µM); in assay [4], 12.5 to 150 µg/mL (≈ 31.4 to 377 µM); in [5], 12.5 to 150 µg/mL (≈ 31.4 to 377 µM); in assay [6], 3.5 to 12.5 µg/mL (≈ 8.81 to 31.4 µM). The MIC in [7] (setting [10]), in assay [8] (setting [11]) and in [9] was 12.5 to 150 µg/mL (≈ 31.4 to 377 µM) each time.

With `Cc1c(-c2ccc(N3CCC(N(C)C)C3)nc2)[nH]c(=O)c(C(=O)O)c1O` (stereo not drawn) [Cpd 337, 6-(6-(3-(dimethylamino)pyrrolidin-1-yl)pyridin-3-yl)-4-hydroxy-5-methyl-2-oxo-1,2-dihydropyridine-3-carboxylic acid], the MIC in assay [1] was 12.5 to 150 µg/mL (≈ 34.9 to 419 µM); in [2] it was 12.5 to 150 µg/mL (≈ 34.9 to 419 µM); in assay [3] it was 12.5 to 150 µg/mL (≈ 34.9 to 419 µM); in assay [4], below 1 µg/mL; in assay [5] it was 12.5 to 150 µg/mL (≈ 34.9 to 419 µM); in assay [6], 12.5 to 150 µg/mL (≈ 34.9 to 419 µM). Moreover, the MIC in [7] (setting [10]), in assay [8] (setting [11]) and in assay [9] was 12.5 to 150 µg/mL (≈ 34.9 to 419 µM) each time.

Turning to `CN(C)c1ccc(-c2[nH]c(=O)c(C(=O)O)c(O)c2CCO)cc1` [Cpd 328, 6-(4-(dimethylamino)phenyl)-4-hydroxy-5-(2-hydroxyethyl)-2-oxo-1,2-dihydropyridine-3-carboxylic acid], the MIC was below 1 µg/mL in [1]; 3.5 to 12.5 µg/mL (≈ 11 to 39.3 µM) in assay [2]; 12.5 to 150 µg/mL (≈ 39.3 to 471 µM) in assay [3]; 3.5 to 12.5 µg/mL (≈ 11 to 39.3 µM) in assay [4]; 12.5 to 150 µg/mL (≈ 39.3 to 471 µM) in assay [5]; 3.5 to 12.5 µg/mL (≈ 11 to 39.3 µM) in assay [6]. In addition, the figures for the MIC in assay [7] (setting [10]), in assay [8] (setting [11]) and in [9] were 3.5 to 12.5 µg/mL (≈ 11 to 39.3 µM), 12.5 to 150 µg/mL (≈ 39.3 to 471 µM) and 12.5 to 150 µg/mL (≈ 39.3 to 471 µM), respectively.

As to `CCc1c(-c2ccc(C3=CCN(C)CC3)cc2)[nH]c(=O)c(C(=O)O)c1O` [Cpd 342, 5-ethyl-4-hydroxy-6-(4-(1-methyl-1,2,3,6-tetrahydropyridin-4-yl)phenyl)-2-oxo-1,2-dihydropyridine-3-carboxylic acid], the MIC in assay [1] is 1 to 3.5 µg/mL (≈ 2.82 to 9.88 µM); in assay [2], 3.5 to 12.5 µg/mL (≈ 9.88 to 35.3 µM); in assay [3], 12.5 to 150 µg/mL (≈ 35.3 to 423 µM); in assay [4], 3.5 to 12.5 µg/mL (≈ 9.88 to 35.3 µM); in assay [5], 12.5 to 150 µg/mL (≈ 35.3 to 423 µM); in [6], 3.5 to 12.5 µg/mL (≈ 9.88 to 35.3 µM). Also, the MIC in assay [7], in assay [8] and in [9] was 12.5 to 150 µg/mL (≈ 35.3 to 423 µM) each time.

For `CCc1c(-c2cnc(N(C)C)nc2)[nH]c(=O)c(C(=O)O)c1O` [Cpd 20, 6-[2-(dimethylamino)pyrimidin-5-yl]-5-ethyl-4-hydroxy-2-oxo-1,2-dihydropyridine-3-carboxylic acid], the MIC in [1] fell in the range of 12.5 to 150 µg/mL (≈ 41.1 to 493 µM); in assay [2], 12.5 to 150 µg/mL (≈ 41.1 to 493 µM); in [3], 12.5 to 150 µg/mL (≈ 41.1 to 493 µM); in assay [4], 3.5 to 12.5 µg/mL (≈ 11.5 to 41.1 µM); in assay [5], 12.5 to 150 µg/mL (≈ 41.1 to 493 µM); in assay [6], 12.5 to 150 µg/mL (≈ 41.1 to 493 µM). For the same molecule, the MIC in assay [7] (setting [10]) was in the range of 3.5 to 12.5 µg/mL (≈ 11.5 to 41.1 µM); in assay [8] (setting [11]), 12.5 to 150 µg/mL (≈ 41.1 to 493 µM); in assay [9] it was 12.5 to 150 µg/mL (≈ 41.1 to 493 µM).

One may read the MIC as the lowest concentration that inhibits growth of the organism.
